Reference: US9801878B2, “Quinoline derivatives as PDE10A enzyme inhibitors” (H. Lundbeck A/S, priority 2011, dated 2017)

Columns and labels:
PDE10A enzyme = PDE10A enzyme (Homo sapiens (Human), UniProt Q9Y233); experiment: PDE10A inhibition assay; assay type: biochemical
Method: Active PDE10A enzyme is prepared in a number of ways for use in PDE assays (Loughney, K. et al. Gene 1999, 234, 109-117; Fujishige, K. et al. Eur J Biochem. 1999, 266, 1118-1127 and Soderling, S. et al. Proc. Natl. Acad. Sci. 1999, 96, 7071-7076). PDE10A can be expressed as full-length proteins or as truncated proteins, as long as they express the catalytic domain. PDE10A can be prepared in different cell types, for example insect cells or E. coli. […]
A PDE10A assay may for example, be performed as follows: The assay is performed in 60 uL samples containing a fixed amount of the relevant PDE enzyme (sufficient to convert 20-25% of the cyclic nucleotide substrate), a buffer (50 mM HEPES7.6; 10 mM MgCl2; 0.02% Tween20), 0.1 mg/ml BSA, 225 pCi of ^3H-labelled cyclic nucleotide substrate, tritium labeled cAMP to a final concentration of 5 nM and varying amounts of inhibitors. […] The beads are allowed to settle for one hr in the dark before the plates are counted in a Wallac 1450 Microbeta counter. The measured signal can be converted to activity relative to an uninhibited control (100%) and IC50 values can be calculated using the Xlfit extension to EXCEL.

[1] = rats, cited from earlier work
[2] = rats; cited from earlier work
[3] = rats; cited from earlier work; remark: listed apart in the source

Sequence of PDE10A enzyme (Q9Y233 716-1055): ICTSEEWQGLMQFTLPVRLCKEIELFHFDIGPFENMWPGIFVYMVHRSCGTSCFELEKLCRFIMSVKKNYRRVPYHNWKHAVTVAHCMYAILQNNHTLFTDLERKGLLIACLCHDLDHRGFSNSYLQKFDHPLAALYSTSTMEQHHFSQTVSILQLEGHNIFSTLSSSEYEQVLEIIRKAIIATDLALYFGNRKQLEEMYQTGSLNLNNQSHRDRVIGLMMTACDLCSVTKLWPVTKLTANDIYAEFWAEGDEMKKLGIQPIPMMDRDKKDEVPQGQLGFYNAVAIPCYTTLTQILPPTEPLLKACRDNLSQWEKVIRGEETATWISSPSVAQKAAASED

| Structure (SMILES) | IC50 (PDE10A enzyme) [nM] | catalepsy on its own ([1]; alone) | cataleptic effect of the D2 receptor antagonist haloperidol ([1]; with haloperidol) | reduction of amphetamine induced hyperactivity [2] | hyperactivity induced by PCP [3] |
| --- | --- | --- | --- | --- | --- |
| Cc1ncc(C)n2nc(CCc3ccc4ccccc4n3)nc12 [2-[2-(5,8-Dimethyl-[1,2,4]triazolo[1,5-a]pyrazin-2-yl)-ethyl]-quinoline] | 7.4 | – | – | – | – |
| COc1ccc(Cc2nccc3cc(OC)c(OC)cc23)cc1OC [Papaverine] | – | did not cause catalepsy on its own | potentiated the cataleptic effect | insignificant | reduced hyperactivity |
